Key:
[1] = test system: human rtTET-expressing ESCs transfected with GFH, H1AM and TBX3; assay: Hepatic programming efficiency by albumin (ALB) flow analysis; type: cell-based; settings: for % ALB-expressing cells (hepatic programming efficiency): 0.5 μM, alone, added along with doxycycline day 1 to day 7 post-plating, FIG. 6
From the text: Genes that are either implicated in hepatic differentiation during normal mammalian development or enriched in adult hepatocytes were cloned into the PiggyBac vector (FIG. 3) under the control of the […] promoter (Table 1). To find transcription factors that are able to directly impose mature hepatic fate upon human ESCs, various combinations of transgene-expressing PiggyBac vectors along with the hPBase-expressing vector were introduced into the human ESCs having constitutive expression of rtTET through nucleofection (Minis Ingenio Electroporation solution: cat#MIR50114; program: Amaxa B-016). Nucleofected human ESCs were cultured on matrigel in mTeSR1 (Stem Cell Technologies). Following geneticin (100 μg/ml) selection for stable genomic transgene integration (cells were passaged at lease once prior to differentiation), human ESCs were individualized by accutase treatment and plated to matrigel-coated 12-well plates. […] Where appropriate, small molecules, such as MEK inhibitor PD0325901, TGFβ kinase/activin receptor like kinase (ALK5) inhibitor A 83-01, and an analogue of the natural signaling molecule cyclic AMP 8-Bromoadenosine 3',5'-cyclic monophosphate (8-Br-cAMP), were added during hepatic programming. To determine the effect of MEK inhibitor PD0325901 (P) and TGFβ kinase/activin receptor like kinase (ALK5) inhibitor A 83-01 (A) on hepatic programming efficiency, human rtTET-expressing ESCs transfected with […] and TBX3 were plated on matrigel-coated 12-well plates at about 0.2×10^6 cells/well in mTeSR supplemented with 10 μM HA100 on day 0. […] Cells were collected for albumin (ALB) flow analysis on day 13 post-plating. […] Transfected cells were plated on matrigel-coated 12-well plates at about 0.2×10^6 cells/well in mTeSR supplemented with 10 μM HA100 on day 0. […] Cells were collected for ALB flow analysis on day 12 post-plating. […] With transgene expression, hepatocyte-like cells with polygonal shapes, distinct nuclei, and tight cell-cell contacts were readily observed. To determine the effect of cyclic AMP analog 8-Br-cAMP on hepatic programming, human rtTET-expressing ESCs transfected with […] and TBX3 were plated on matrigel-coated 12-well plates at about 0.2×10^6 cells/well in mTeSR supplemented with 10 μM HA100 on day 0. […] Cells were collected for ALB flow analysis on day 13 post-plating.

MEK = settings: Bain et al., 2007; cited from earlier work

**Q.** Which results are given for `Nc1ncnc2c1nc(Br)n2[C@@H]1O[C@@H]2COP(=O)(O)O[C@H]2[C@H]1O` [8-Br-cAMP, 8-Bromoadenosine 3′,5′-cyclic monophosphate]?
**A.** saturation concentration for improved hepatic programming ([1]; added from day 7 after removal of doxycycline, P and A, ALB flow analysis day 13, FIG. 8): ~200 µM; hepatic programming (ALB flow analysis) ([1]; different concentrations added from day 7 after removal of doxycycline, P and A, ALB flow analysis day 13, FIG. 8): significantly improved

**Q.** For `Cc1cccc(-c2nn(C(=S)Nc3ccccc3)cc2-c2ccnc3ccccc23)n1` [A 83-01], which “% ALB-expressing cells (hepatic programming efficiency)” value ([1]; ALB flow analysis day 13) is on record?
**A.** significantly improves

**Q.** Which “optimal time window for transgene induction for hepatic programming” value ([1]; doxycycline 1 μg/ml with P and A for 0, 2, 4, 6, 8 or 10 days, ALB flow analysis day 12, FIG. 7A) does the source give for `C[C@H]1c2cccc(O)c2C(=O)C2=C(O)[C@]3(O)C(=O)C(C(N)=O)=C(O)[C@@H](N(C)C)[C@@H]3[C@@H](O)[C@@H]21` [Doxycycline] here?
**A.** 4 days

**Q.** With `O=C(NOCC1CC1)c1ccc(F)c(F)c1Nc1ccc(I)cc1Cl` [PD184352] as the molecule, how does the “specificity and potency compared to other known MEK inhibitors” value (MEK) read?
**A.** high degree of specificity and potency

**Q.** Which “% ALB-expressing cells (hepatic programming efficiency)” value ([1]; ALB flow analysis day 13) does the source give for `O=C(NOC[C@H](O)CO)c1ccc(F)c(F)c1Nc1ccc(I)cc1F` [PD0325901] here?
**A.** significantly improves

Source: patent US20140242595A1, “HEPATOCYTE PRODUCTION VIA FORWARD PROGRAMMING BY COMBINED GENETIC AND CHEMICAL ENGINEERING” (Cellular Dynamics International, Inc., priority 2013, published 2014)
